Measured values reported in ChEMBL document CHEMBL1155151, “First occurrence of an Escherichia coli clinical isolate producing the VIM-1/VIM-2 hybrid metallo-beta-lactamase VIM-12” (2007).
Converted amounts (≈) assume the structure as drawn.

Columns and labels:
Format in all cases: functional
[1] = test system: Escherichia coli; assay: Antibacterial activity against metallo-beta-lactamase VIM12 expressing Escherichia coli 28 isolate from decubitus ulcer infection patient by Etest
[2] = test system: Escherichia coli; assay: Antibacterial activity against Escherichia coli transconjugant carrying pEC28 isolate eby Etest
[3] = test system: Escherichia coli; assay: Antibacterial activity against Escherichia coli 26R793 by Etest

In the case of C[C@@H](O)[C@H]1C(=O)N2C(C(=O)O)=C(S[C@@H]3CN[C@H](C(=O)Nc4cccc(C(=O)O)c4)C3)[C@H](C)[C@H]12 [ERTAPENEM], the MIC [1] was 0.5 µg/mL (≈ 1.05 µM), the MIC [2] was 0.094 µg/mL (≈ 0.198 µM) and the MIC [3] was 0.064 µg/mL (≈ 0.135 µM).
With CO/N=C(\C(=O)N[C@@H]1C(=O)N2C(C(=O)[O-])=C(C[N+]3(C)CCCC3)CS[C@H]12)c1csc(N)n1 [CEFEPIME] the MIC [1] was 12 µg/mL (≈ 25 µM), the MIC [2] was 1 µg/mL (≈ 2.08 µM) and the MIC [3] was 0.094 µg/mL (≈ 0.196 µM).
Work on C[C@@H](O)[C@H]1C(=O)N2C(C(=O)O)=C(S[C@@H]3CN[C@H](C(=O)N(C)C)C3)[C@H](C)[C@H]12 [MEROPENEM] yielded an MIC [1] of 0.25 µg/mL (≈ 0.652 µM), an MIC [2] of 0.023 µg/mL (≈ 0.06 µM) and an MIC [3] of 0.032 µg/mL (≈ 0.0834 µM).
Molecule CO/N=C(\C(=O)N[C@@H]1C(=O)N2C(C(=O)O)=C(COC(C)=O)CS[C@H]12)c1csc(N)n1 [CEFOTAXIME] has an MIC [1] of over 32 µg/mL, an MIC [2] of 8 µg/mL (≈ 17.6 µM) and an MIC [3] of 0.094 µg/mL (≈ 0.206 µM).
In the case of CC(C)(O/N=C(\C(=O)N[C@@H]1C(=O)N2C(C(=O)[O-])=C(C[n+]3ccccc3)CS[C@H]12)c1csc(N)n1)C(=O)O [CEFTAZIDIME], the MIC [1] was over 256 µg/mL, the MIC [2] was 4 µg/mL (≈ 7.32 µM) and the MIC [3] was 0.75 µg/mL (≈ 1.37 µM).
For C[C@@H](O)[C@H]1C(=O)N2C(C(=O)O)=C(SCCNC=N)C[C@H]12 [IMIPENEM ANHYDROUS], the MIC [1] was 1 µg/mL (≈ 3.34 µM) and the MIC [3] was 0.5 µg/mL (≈ 1.67 µM).
For O=C(O)c1cn(C2CC2)c2cc(N3CCNCC3)c(F)cc2c1=O [CIPROFLOXACIN], the MIC [1] was 0.047 µg/mL (≈ 0.142 µM), the MIC [2] was 0.047 µg/mL (≈ 0.142 µM) and the MIC [3] was 0.047 µg/mL (≈ 0.142 µM).
CN(C)[C@@H]1C(O)=C(C(N)=O)C(=O)[C@@]2(O)C(O)=C3C(=O)c4c(O)cccc4[C@@](C)(O)[C@H]3C[C@@H]12 [TETRACYCLINE] was tested, and the MIC [1] was over 256 µg/mL, the MIC [2] was 1 µg/mL (≈ 2.25 µM) and the MIC [3] was 1 µg/mL (≈ 2.25 µM).
C[C@H]1[C@H](NC(=O)/C(=N\OC(C)(C)C(=O)O)c2csc(N)n2)C(=O)N1S(=O)(=O)O [AZTREONAM] showed an MIC [1] of 1 µg/mL (≈ 2.3 µM), an MIC [2] of 0.5 µg/mL (≈ 1.15 µM) and an MIC [3] of 0.094 µg/mL (≈ 0.216 µM).
Molecule CO[C@@]1(NC(=O)Cc2cccs2)C(=O)N2C(C(=O)O)=C(COC(N)=O)CS[C@@H]21 [CEFOXITIN] has an MIC [1] of over 256 µg/mL, an MIC [2] of 32 µg/mL (≈ 74.9 µM) and an MIC [3] of 8 µg/mL (≈ 18.7 µM).
CC1(C)S[C@@H]2[C@H](NC(=O)[C@H](N)c3ccc(O)cc3)C(=O)N2[C@H]1C(=O)O [AMOXICILLIN] gave an MIC [1] of over 256 µg/mL, an MIC [2] of 32 µg/mL (≈ 87.6 µM) and an MIC [3] of 4 µg/mL (≈ 10.9 µM).
NCC[C@H](O)C(=O)N[C@@H]1C[C@H](N)[C@@H](O[C@H]2O[C@H](CN)[C@@H](O)[C@H](O)[C@H]2O)[C@H](O)[C@H]1O[C@H]1O[C@H](CO)[C@@H](O)[C@H](N)[C@H]1O [AMIKACIN] was tested, and the MIC [1] was 128 µg/mL (≈ 219 µM), the MIC [2] was 48 µg/mL (≈ 82 µM) and the MIC [3] was 2 µg/mL (≈ 3.42 µM).
